Data as given in ChEMBL document CHEMBL5390204, “Persephacin Is a Broad-Spectrum Antifungal Aureobasidin Metabolite That Overcomes Intrinsic Resistance in Aspergillus fumigatus” (J Nat Prod, 2023).
≈ marks a conversion by molar mass, not a printed value. Calls of active or inactive are those of the source. No cut-off for these calls is given here.

Key:
[1] = test system: Aspergillus fumigatus; assay: Antifungal activity against Aspergillus fumigatus NRRL5109 infected in pig cornea assessed as suppression of fungal growth at 2 % administered post fungal infection measured after 4 days by microscopic analysis; format: functional, organism-based; details: time 4.0 day
[2] = test system: Candida albicans; assay: Antifungal activity against fluconazole-resistant Candida albicans SC5314 infected in pig cornea assessed as suppression of fungal growth at 2 % administered post fungal infection measured after 4 days by microscopic analysis; format: functional, organism-based; details: time 4.0 day
[3] = test system: Pichia kudriavzevii; assay: Antifungal activity against Candida krusei ATCC 6258 (Y-7179) assessed as reduction in fungal growth incubated for 48 hrs by microplate reader analysis; format: functional
[4] = test system: Mucor circinelloides; assay: Antifungal activity against Mucor circinelloides 235C7 assessed as reduction in fungal viability incubated for 48 hrs by microplate reader analysis; format: functional
[5] = test system: Aspergillus flavus; assay: Antifungal activity against Aspergillus flavus NRRL485 assessed as reduction in fungal growth incubated for 48 hrs by microplate reader analysis; format: functional
[6] = test system: Hamigera insecticola; assay: Antifungal activity against Hamigera insecticola NRRL35442 assessed as reduction in fungal growth incubated for 48 hrs by microplate reader analysis; format: functional
[7] = test system: Paecilomyces lilacinus; assay: Antifungal activity against Paecilomyces lilacinus 165E10 assessed as reduction in fungal growth incubated for 48 hrs by microplate reader analysis; format: functional; details: Purpureocillium lilacinum
[8] = test system: Aspergillus fumigatus; assay: Antifungal activity against Aspergillus fumigatus MYA 3627 assessed as reduction in fungal growth incubated for 48 hrs by microplate reader analysis; format: functional
[9] = test system: Aspergillus niger; assay: Antifungal activity against Aspergillus niger FGSC A732 assessed as reduction in fungal viability incubated for 48 hrs by microplate reader analysis; format: functional
[10] = test system: Pichia kudriavzevii; assay: Antifungal activity against Candida krusei ATCC 6258 (Y-7179) assessed as reduction in fungal viability incubated for 48 hrs by microplate reader analysis; format: functional
[11] = test system: Aspergillus fumigatus; assay: Antifungal activity against Aspergillus fumigatus NRRL6113 assessed as reduction in fungal growth incubated for 48 hrs by microplate reader analysis; format: functional
[12] = test system: Curvularia lunata; assay: Antifungal activity against Curvularia lunata NRRL6409 assessed as reduction in fungal viability incubated for 48 hrs by microplate reader analysis; format: functional
[13] = test system: Fusarium solani; assay: Antifungal activity against Fusarium solani 243G2 assessed as reduction in fungal viability incubated for 48 hrs by microplate reader analysis; format: functional
[14] = test system: Rhizopus arrhizus; assay: Antifungal activity against Rhizopus oryzae FGSC 9543 assessed as reduction in fungal growth incubated for 48 hrs by microplate reader analysis; format: functional
[15] = test system: Rhizopus arrhizus; assay: Antifungal activity against Rhizopus oryzae FGSC 9543 assessed as reduction in fungal viability incubated for 48 hrs by microplate reader analysis; format: functional
[16] = test system: Aspergillus terreus; assay: Antifungal activity against Aspergillus terreus 191A6 assessed as reduction in fungal growth incubated for 48 hrs by microplate reader analysis; format: functional
[17] = test system: Candida tropicalis; assay: Antifungal activity against Candida tropicalis ATCC750 (Y-12699) assessed as reduction in fungal viability incubated for 48 hrs by microplate reader analysis; format: functional
[18] = test system: Aspergillus terreus; assay: Antifungal activity against Aspergillus terreus 191A6 assessed as reduction in fungal viability incubated for 48 hrs by microplate reader analysis; format: functional
[19] = test system: Aspergillus fumigatus; assay: Antifungal activity against Aspergillus fumigatus MYA 3627 assessed as reduction in fungal viability incubated for 48 hrs by microplate reader analysis; format: functional
[20] = test system: Cryptococcus neoformans; assay: Antifungal activity against Cryptococcus neoformans H99 assessed as reduction in fungal growth incubated for 48 hrs by microplate reader analysis; format: functional
[21] = test system: Cryptococcus neoformans; assay: Antifungal activity against Cryptococcus neoformans H99 assessed as reduction in fungal viability incubated for 48 hrs by microplate reader analysis; format: functional
[22] = test system: Fusarium solani; assay: Antifungal activity against Fusarium solani 243G2 assessed as reduction in fungal growth incubated for 48 hrs by microplate reader analysis; format: functional
[23] = test system: Hamigera insecticola; assay: Antifungal activity against Hamigera insecticola NRRL35442 assessed as reduction in fungal viability incubated for 48 hrs by microplate reader analysis; format: functional
[24] = test system: Aspergillus flavus; assay: Antifungal activity against Aspergillus flavus NRRL485 assessed as reduction in fungal viability incubated for 48 hrs by microplate reader analysis; format: functional
[25] = test system: Aspergillus fumigatus; assay: Antifungal activity against Aspergillus fumigatus NRRL6113 assessed as reduction in fungal viability incubated for 48 hrs by microplate reader analysis; format: functional
[26] = test system: Paecilomyces lilacinus; assay: Antifungal activity against Paecilomyces lilacinus 165E10 assessed as reduction in fungal viability incubated for 48 hrs by microplate reader analysis; format: functional, Purpureocillium lilacinum
[27] = test system: Candida albicans; assay: Antifungal activity against Candida albicans SC5314 assessed as reduction in fungal growth incubated for 48 hrs by microplate reader analysis; format: functional
[28] = test system: Aspergillus niger; assay: Antifungal activity against Aspergillus niger FGSC A732 assessed as reduction in fungal growth incubated for 48 hrs by microplate reader analysis; format: functional
[29] = test system: Candida parapsilosis; assay: Antifungal activity against Candida parapsilosis ATCC 22019 (Y-12969) assessed as reduction in fungal growth incubated for 48 hrs by microplate reader analysis; format: functional; details: Lodderomyces parapsilosis
[30] = test system: Candida albicans; assay: Antifungal activity against Candida albicans SC5314 assessed as reduction in fungal viability incubated for 48 hrs by microplate reader analysis; format: functional
[31] = test system: Candida parapsilosis; assay: Antifungal activity against Candida parapsilosis ATCC 22019 (Y-12969) assessed as reduction in fungal viability incubated for 48 hrs by microplate reader analysis; format: functional
[32] = test system: Aspergillus fumigatus; assay: Antifungal activity against Aspergillus fumigatus NRRL5109 assessed as reduction in fungal viability incubated for 48 hrs by microplate reader analysis; format: functional
[33] = test system: Candida albicans; assay: Antifungal activity against Candida albicans ATCC 10231 assessed as reduction in fungal growth incubated for 48 hrs by microplate reader analysis; format: functional
[34] = test system: Mucor circinelloides; assay: Antifungal activity against Mucor circinelloides 235C7 assessed as reduction in fungal growth incubated for 48 hrs by microplate reader analysis; format: functional
[35] = test system: Aspergillus fumigatus; assay: Antifungal activity against Aspergillus fumigatus NRRL5109 assessed as reduction in fungal growth incubated for 48 hrs by microplate reader analysis; format: functional
[36] = test system: Curvularia lunata; assay: Antifungal activity against Curvularia lunata NRRL6409 assessed as reduction in fungal growth incubated for 48 hrs by microplate reader analysis; format: functional
[37] = test system: Candida tropicalis; assay: Antifungal activity against Candida tropicalis ATCC750 (Y-12699) assessed as reduction in fungal growth incubated for 48 hrs by microplate reader analysis; format: functional
[38] = test system: Candida albicans; assay: Antifungal activity against Candida albicans ATCC 10231 assessed as reduction in fungal viability incubated for 48 hrs by microplate reader analysis; format: functional

OC(Cn1cncn1)(Cn1cncn1)c1ccc(F)cc1F
Activity [1]: inactive | Activity [2]: inactive

CC[C@H](C)C[C@H](C)CCCCCCCCC(=O)N[C@H]1C[C@@H](O)[C@@H](NCCN)NC(=O)[C@@H]2[C@@H](O)CCN2C(=O)[C@H]([C@H](O)CCN)NC(=O)[C@H]([C@H](O)[C@@H](O)c2ccc(O)cc2)NC(=O)[C@@H]2C[C@@H](O)CN2C(=O)[C@H]([C@@H](C)O)NC1=O [CASPOFUNGIN]
MFC [3]: 0.3 µM (≈ 0.328 µg/mL) | MIC80 [3]: 0.2 µM (≈ 0.219 µg/mL) | MFC<=99.9 [4]: >10 µM | MFC [5]: > 10 µM | MIC80 [5]: > 10 µM | MFC [6]: > 10 µM | MIC80 [6]: 0.1 µM (≈ 0.109 µg/mL) | MFC [7]: > 10 µM | MIC80 [7]: > 10 µM | MFC [8]: > 10 µM | MIC80 [8]: 0.1 µM (≈ 0.109 µg/mL) | MFC<=99.9 [9]: >10 µM | MFC<=99.9 [10]: 0.3 µM (≈ 0.328 µg/mL) | MFC [11]: > 10 µM | MIC80 [11]: > 10 µM | MFC<=99.9 [12]: 5 µM (≈ 5.47 µg/mL) | MFC<=99.9 [13]: >10 µM | MFC [14]: > 10 µM | MIC80 [14]: > 10 µM | MFC<=99.9 [15]: >10 µM | MFC [16]: > 10 µM | MIC80 [16]: 0.13 µM (≈ 0.142 µg/mL) | MFC<=99.9 [17]: 0.2 µM (≈ 0.219 µg/mL) | MFC<=99.9 [18]: >10 µM | MFC<=99.9 [19]: >10 µM | MFC [20]: > 10 µM | MIC80 [20]: > 10 µM | MFC<=99.9 [21]: >10 µM | MFC [22]: > 10 µM | MIC80 [22]: 0.2 µM (≈ 0.219 µg/mL) | MFC<=99.9 [23]: >10 µM | MFC<=99.9 [24]: >10 µM | MFC<=99.9 [25]: >10 µM | MFC<=99.9 [26]: >10 µM | MFC [27]: 0.63 µM (≈ 0.689 µg/mL) | MIC80 [27]: 0.03 µM (≈ 0.0328 µg/mL) | MFC [28]: > 10 µM | MIC80 [28]: 0.1 µM (≈ 0.109 µg/mL) | MFC [29]: 1.3 µM (≈ 1.42 µg/mL) | MIC80 [29]: 0.3 µM (≈ 0.328 µg/mL) | MFC<=99.9 [30]: 0.63 µM (≈ 0.689 µg/mL) | MFC<=99.9 [31]: 1.3 µM (≈ 1.42 µg/mL) | MFC<=99.9 [32]: >10 µM | MFC [33]: 5 µM (≈ 5.47 µg/mL) | MIC80 [33]: 0.03 µM (≈ 0.0328 µg/mL) | MFC [34]: > 10 µM | MIC80 [34]: > 10 µM | MFC [35]: > 10 µM | MIC80 [35]: > 10 µM | MFC [36]: 5 µM (≈ 5.47 µg/mL) | MIC80 [36]: 5 µM (≈ 5.47 µg/mL) | MFC [37]: 0.2 µM (≈ 0.219 µg/mL) | MIC80 [37]: 0.03 µM (≈ 0.0328 µg/mL) | MFC<=99.9 [38]: 5 µM (≈ 5.47 µg/mL)
